{"source": "patent EP4015634A1", "about": "“SIRNA AND COMPOSITIONS FOR PROPHYLACTIC AND THERAPEUTIC TREATMENT OF VIRUS DISEASES” (SYLENTIS, S.A.U., priority 2020, dated 2022)", "origin": "cited, not measured here", "key": {"SARS-CoV-2": {"tested_on": "SARS-CoV-2", "conditions": "in vitro studies"}, "patients with COVID-19": {"tested_on": "patients with COVID-19", "conditions": "phase I"}}, "note": "*1 amine or outer side, *2 acyl side, *3 side chain or, on linkers, in order; H or OH if unused. Where a SMILES comes first, the peptide text is derived from it. Bridges are numbered along the chain shown (N, C = ends). [ ]: non-standard residue; d: D form. The star is where a group is joined. X1 = CC[C@H](C)[C@@H](N[*:1])[C@@H](O)CC(=O)O[C@H](C(=O)[C@H](C)C(=O)[*:2])C(C)C; NMeY = CN[C@@H](Cc1ccc(O)cc1)C(=O)O; dNMeL = CN[C@H](CC(C)C)C(=O)O; Pyruvoyl = CC(=O)C(=O)*"}
{"smiles": "CC[C@H](C)[C@H]1NC(=O)[C@@H](NC(=O)[C@@H](CC(C)C)N(C)C(=O)[C@@H]2CCCN2C(=O)C(C)=O)[C@@H](C)OC(=O)[C@H](Cc2ccc(OC)cc2)N(C)C(=O)[C@@H]2CCCN2C(=O)[C@H](CC(C)C)NC(=O)[C@@H](C)C(=O)[C@H](C(C)C)OC(=O)C[C@@H]1O", "note": "[plitidepsin] (Pyruvoyl-P[dNMeL]T[X1]LP[NMeY](Me); ester 3-C)", "values": [{"measurement": "SARS-CoV-2 viral load in vitro", "setting": "SARS-CoV-2", "value": "reduced SARS-CoV-2 viral load at nanomolar concentrations"}, {"measurement": "primary safety endpoint", "setting": "patients with COVID-19; patients with COVID-19 who required hospitalization", "value": "met the primary safety endpoint"}, {"measurement": "preliminary secondary endpoints of efficacy", "setting": "patients with COVID-19; treated patients", "value": "substantial reduction in viral load and the C-reactive protein"}]}
